According to patent US20080220084A1, “COMBINATION THERAPY FOR ALLEVIATING PAIN-RELATED CONDITIONS” (Pfantastic Medical Research Institute, LLC, priority 2007, published 2008):

System: chronic low back pain
Assay: Treatment of low back pain (herniated disc, lumbar spinal canal stenosis), single-subject case
Format: in vivo, human
Conditions: person, before the composition
Excerpt: The acute pain was managed by a combination of pain killer medication and a series of physical therapies at that time. However, chronic low back pain remained ever since. […] The patient was also subjected to a series of disc decompression treatments (20 treatment sessions).
No medication and other treatment were applied prior to taking the composition of the present invention. Two pills (0.5 g each) of the composition of the present invention were taken by the patient every morning and at night (twice a day). Each pill was composed of Rhizoma Gastrodiae Elatae (˜30-60 mg), dry powder of Manitis (˜70-105 mg), dry powder of Agkistrodon seu Bungarus (˜25-40 mg), roots of Radix Aconiti Lateralis Preparata (˜50-90 mg) and Radix Paeoniae Lactiflorae (˜50-90 mg), Herba Asari cum Radice (˜25-40 mg), Cornu cervi Parvum (˜70-100 mg), Eupolyphaga seu Opisthoplatia (˜25-45 mg), and Sulindac (30 mg). Total daily dosage of Sulindac was 120 mg, which is lower than recommended dosage (400 mg/day). Sulindac is a NSAID for the treatment of arthritis, but not proposed for the treatment of sciatica nerve pain.

Cc1ccc(-c2cc(C(F)(F)F)nn2-c2ccc(S(N)(=O)=O)cc2)cc1 [Celebrex]
pain reduction by earlier prescribed medication: not effective in reducing the pain
